Consider 25 molecules from ChEMBL document CHEMBL6134910, “Discovery of a New Class of Orexin 2 Receptor Agonists as a Potential Treatment for Narcolepsy” (J Med Chem, 2025).

One may read the EC50 as the concentration needed to bring the measured effect to its halfway point. In general, IC50 refers to the concentration that inhibits the measured activity by half. A low value points to greater potency.

The first assay deals with T1, Orexin receptor type 2 (Homo sapiens, UniProt O43614).
T1 sequence (O43614 whole entry): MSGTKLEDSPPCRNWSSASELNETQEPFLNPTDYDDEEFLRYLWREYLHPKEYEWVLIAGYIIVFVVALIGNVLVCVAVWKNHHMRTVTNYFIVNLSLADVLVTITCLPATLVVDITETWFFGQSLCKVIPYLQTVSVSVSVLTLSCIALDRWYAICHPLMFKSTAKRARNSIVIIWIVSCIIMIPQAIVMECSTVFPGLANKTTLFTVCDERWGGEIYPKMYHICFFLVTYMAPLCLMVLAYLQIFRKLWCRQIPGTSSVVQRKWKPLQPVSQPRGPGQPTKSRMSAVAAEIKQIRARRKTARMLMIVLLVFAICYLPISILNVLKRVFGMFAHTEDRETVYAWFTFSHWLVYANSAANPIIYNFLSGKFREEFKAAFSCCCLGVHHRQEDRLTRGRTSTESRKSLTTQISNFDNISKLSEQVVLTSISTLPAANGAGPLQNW
The experiment in a line: Agonist activity at human OX2 receptor expressed in HEK293 cells assessed as IP-1 accumulation incubated for […] by HTRF IP-one Gq detection assay. The assay is classed as functional, cell-based. (Time-resolved FRET reads energy transfer from a long-lived donor to a nearby acceptor.)
`Cn1ncc(CC(=O)N(C2CCCC2)C(C(=O)NC23CC(C)(C2)C3)C2CCCC2)c1-c1ccccc1` (centres undefined): the EC50 is over 20 µM.

The next assay deals with Cytochrome P450 3A4 (Homo sapiens, UniProt P08684). The experiment in a line: Inhibition of CYP3A4 in human liver microsome using testosterone as substrate incubated for 7 mins. The assay is classed as ADME, microsomes.
Sequence of Cytochrome P450 3A4 (P08684 whole entry): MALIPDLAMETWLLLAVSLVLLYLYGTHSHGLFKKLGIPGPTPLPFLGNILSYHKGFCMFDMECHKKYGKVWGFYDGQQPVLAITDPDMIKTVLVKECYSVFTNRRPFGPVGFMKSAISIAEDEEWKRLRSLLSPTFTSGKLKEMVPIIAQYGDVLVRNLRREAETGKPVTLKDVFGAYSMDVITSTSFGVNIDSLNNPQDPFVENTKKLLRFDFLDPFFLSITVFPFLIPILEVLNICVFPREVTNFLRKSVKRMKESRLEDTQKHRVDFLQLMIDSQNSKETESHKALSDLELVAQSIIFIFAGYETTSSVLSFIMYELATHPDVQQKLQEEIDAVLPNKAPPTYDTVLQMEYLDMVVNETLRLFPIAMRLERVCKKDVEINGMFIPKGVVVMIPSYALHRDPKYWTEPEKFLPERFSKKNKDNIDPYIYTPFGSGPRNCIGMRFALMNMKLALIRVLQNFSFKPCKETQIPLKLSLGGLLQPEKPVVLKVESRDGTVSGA
Turning to `CC12CC(NC(=O)[C@@H](c3ccccc3)N(C(=O)Cc3cnnn3-c3ccccc3)C3CCCC3)(C1)C2`, half-maximal inhibition (IC50) was put at 1.6 µM.

`Cn1ncc(CC(=O)N(C2CCCC2)C(C(=O)NC23CC(C)(C2)C3)c2ccccc2)c1-c1c(F)cccc1F` (centres undefined) had an IC50 of 7 µM.

In turn, `Cn1ncc(CC(=O)N(C2CCCC2)[C@@H](C(=O)NC23CC(C)(C2)C3)c2ccccc2)c1-n1nccn1` gave an IC50 of 4 µM.

In the case of `Cn1ncc(CC(=O)N(C2CCCC2)C(C(=O)NC23CC(C)(C2)C3)c2ccccc2)c1-c1ncccn1` (centres undefined), the IC50 came to 6.8 µM.

`Cc1nsc(CC(=O)N(C2CCCC2)[C@@H](C(=O)NC23CC(C)(C2)C3)c2ccccc2)c1-c1ccccc1` showed an IC50 of 1.4 µM.

As to `Cn1ncc(CC(=O)N(C2CCCC2)[C@@H](C(=O)NC23CC(C)(C2)C3)c2ccccc2)c1-c1cccnc1`, the IC50 stood at 7.6 µM.

Regarding `Cn1ncc(CC(=O)N(C2CCCC2)C(C(=O)NC23CC(C)(C2)C3)c2ccccc2)c1-c1coc(C2CC2)n1` (centres undefined), the IC50 came to 4.2 µM.

Molecule `Cn1nnc(-c2c(CC(=O)N(C3CCCC3)C(C(=O)NC34CC(C)(C3)C4)c3ccccc3)cnn2C)n1` (centres undefined) returned an IC50 of 12 µM. Compared with the last molecule, the IC50 is about 2.9-fold higher.

`CC(C)N(C(=O)Cc1cnn(C)c1-c1ccccc1)[C@@H](c1cn(C23CC(C)(C2)C3)nn1)c1cc(F)ccc1F`: the midpoint of inhibition, the IC50, lay at 1 µM.

In turn, `O=C(NC1CCCCC1)[C@@H](c1ccccc1)N(C[C@H]1CCCO1)C(=O)Cn1cncc1-c1ccccc1` returned an IC50 of 0.25 µM.

The molecule `CC12CC(NC(=O)[C@@H](c3ccccc3)N(C(=O)Cc3cnn(C(F)F)c3-c3ccccc3)C3CCCC3)(C1)C2` returned an IC50 of 2 µM.

In turn, `CC12CC(NC(=O)[C@@H](c3ccccc3)N(C(=O)Cn3cnc(Cl)c3-c3ccccc3)C3CCCC3)(C1)C2` displayed an IC50 of 18 µM.

Molecule `CC(C)N(C(=O)Cc1cnn(C)c1-c1ccccc1)[C@@H](C(=O)NC12CC(C)(C1)C2)c1cc(F)ccc1F` gave an IC50 of 0.3 µM.

With `Cc1ncn(CC(=O)N(C2CCCC2)[C@@H](C(=O)NC23CC(C)(C2)C3)c2ccccc2)c1-c1ccccc1`, the half-maximal inhibitory concentration (IC50) was 7.3 µM.

In turn, `COc1cccc(-c2c(CC(=O)N(C3CCCC3)C(C(=O)NC34CC(C)(C3)C4)c3ccccc3)cnn2C)c1F` (centres undefined) returned an IC50 of 0.9 µM.

Consider `COc1cccc(-c2c(CC(=O)N(C3CCCC3)C(C(=O)NC34CC(C)(C3)C4)c3ccccc3)cnn2C)c1` (centres undefined), for which the IC50 was determined as 1.5 µM.

With `Cn1ncc(CC(=O)N(C2CCCC2)[C@@H](C(=O)NC23CC(C)(C2)C3)c2ccccc2)c1-c1ccccc1`, the IC50 is 5 µM.

Molecule `O=C(NC1CCCCC1)[C@@H](c1ccccc1)N(C[C@H]1CCCO1)C(=O)Cn1cnc2ccccc21` returned an IC50 of 10 µM.

`Cn1ccc(-c2c(CC(=O)N(C3CCCC3)C(C(=O)NC34CC(C)(C3)C4)c3ccccc3)cnn2C)n1` (centres undefined) gave an IC50 of 2.5 µM. Compared with the last molecule, the IC50 is about 4-fold lower.

`CC12CC(NC(=O)[C@@H](c3ccccc3)N(C(=O)Cc3cnoc3-c3ccccc3)C3CCCC3)(C1)C2` yielded an IC50 of 1.9 µM.

`Cn1ncc(CC(=O)N(C2CCCC2)C(C(=O)NC23CC(C)(C2)C3)c2ccccc2)c1-c1ccc(F)cc1F` (centres undefined) showed an IC50 of 1.6 µM.

For `Cc1ncn(CC(=O)N(C[C@H]2CCCO2)[C@@H](C(=O)NC2CCCCC2)c2ccccc2)c1-c1ccccc1`, the IC50 was determined as 7.3 µM. Against the preceding molecule, the IC50 is about 4.6-fold higher.

The target in the next assay is T2, Orexin/Hypocretin receptor type 1 (Homo sapiens, UniProt O43613).
T2 sequence (O43613 whole entry): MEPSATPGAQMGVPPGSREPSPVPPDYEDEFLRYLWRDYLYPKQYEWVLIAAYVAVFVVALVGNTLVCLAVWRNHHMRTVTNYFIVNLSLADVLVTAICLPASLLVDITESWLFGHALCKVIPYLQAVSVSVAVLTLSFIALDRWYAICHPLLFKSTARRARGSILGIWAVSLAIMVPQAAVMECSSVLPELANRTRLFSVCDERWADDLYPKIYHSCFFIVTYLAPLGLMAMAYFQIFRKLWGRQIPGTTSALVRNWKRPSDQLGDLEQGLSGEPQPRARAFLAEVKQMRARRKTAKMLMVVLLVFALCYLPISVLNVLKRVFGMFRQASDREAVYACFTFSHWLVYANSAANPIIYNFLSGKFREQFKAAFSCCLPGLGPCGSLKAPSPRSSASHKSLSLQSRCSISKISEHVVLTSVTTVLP
The experiment in a line: Agonist activity at human OX1 receptor expressed in HEK293 cells assessed as IP-1 accumulation incubated for […] by HTRF IP-one Gq detection assay. The assay is classed as functional, cell-based.
For `Cn1nnc(-c2oncc2CC(=O)N(C2CC3(CC3)C2)[C@@H](C(=O)NC23CC(C)(C2)C3)c2cc(F)ccc2F)n1`, the EC50 was over 20 µM.

Regarding `Cn1nnc(-c2c(CC(=O)N(C3CC4(CC4)C3)[C@@H](C(=O)NC34CC(C)(C3)C4)c3ccccc3Cl)cnn2C)n1`, the EC50 was over 20 µM.

The target of another assay is Cytochrome P450 2D6 (Homo sapiens, UniProt P10635). Kind of assay: Inhibition of CYP2D6 in human liver microsome using dextrometorphan as substrate incubated for 30 mins by LC-MS/MS analysis. The assay is classed as ADME, microsomes. Background: Liver microsomes are a subcellular fraction often used to study metabolism.
Sequence of Cytochrome P450 2D6 (P10635 whole entry): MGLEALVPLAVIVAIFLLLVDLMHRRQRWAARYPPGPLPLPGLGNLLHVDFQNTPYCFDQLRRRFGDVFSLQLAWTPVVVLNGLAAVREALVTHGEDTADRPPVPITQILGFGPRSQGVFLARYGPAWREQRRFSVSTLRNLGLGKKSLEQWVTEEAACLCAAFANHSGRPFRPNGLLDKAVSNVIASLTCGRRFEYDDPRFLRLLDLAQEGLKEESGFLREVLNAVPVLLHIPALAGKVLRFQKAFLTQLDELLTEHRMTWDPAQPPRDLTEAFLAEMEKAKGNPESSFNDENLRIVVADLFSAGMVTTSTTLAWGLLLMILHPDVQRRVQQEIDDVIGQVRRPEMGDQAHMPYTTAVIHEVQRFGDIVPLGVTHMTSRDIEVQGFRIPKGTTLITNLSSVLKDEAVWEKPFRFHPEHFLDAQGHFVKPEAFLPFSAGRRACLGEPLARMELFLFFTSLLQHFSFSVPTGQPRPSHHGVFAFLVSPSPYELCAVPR
Turning to `Cn1nnc(-c2oncc2CC(=O)N(C2CC3(CC3)C2)[C@@H](C(=O)NC23CC(C)(C2)C3)c2cc(F)ccc2F)n1`, the concentration for half-maximal inhibition (IC50) turned out to be 20 µM.

Take `Cn1nnc(-c2c(CC(=O)N(C3CC4(CC4)C3)[C@@H](C(=O)NC34CC(C)(C3)C4)c3ccccc3Cl)cnn2C)n1`: the IC50 came to 5.3 µM.

For another assay, the target named is Cytochrome P450 2C9 (Homo sapiens, UniProt P11712). Kind of assay: Inhibition of CYP2C9 in human liver microsome using diclofenac as substrate incubated for 6 mins by LC-MS/MS analysis. The assay is classed as ADME, microsomes.
Sequence of Cytochrome P450 2C9 (P11712 whole entry): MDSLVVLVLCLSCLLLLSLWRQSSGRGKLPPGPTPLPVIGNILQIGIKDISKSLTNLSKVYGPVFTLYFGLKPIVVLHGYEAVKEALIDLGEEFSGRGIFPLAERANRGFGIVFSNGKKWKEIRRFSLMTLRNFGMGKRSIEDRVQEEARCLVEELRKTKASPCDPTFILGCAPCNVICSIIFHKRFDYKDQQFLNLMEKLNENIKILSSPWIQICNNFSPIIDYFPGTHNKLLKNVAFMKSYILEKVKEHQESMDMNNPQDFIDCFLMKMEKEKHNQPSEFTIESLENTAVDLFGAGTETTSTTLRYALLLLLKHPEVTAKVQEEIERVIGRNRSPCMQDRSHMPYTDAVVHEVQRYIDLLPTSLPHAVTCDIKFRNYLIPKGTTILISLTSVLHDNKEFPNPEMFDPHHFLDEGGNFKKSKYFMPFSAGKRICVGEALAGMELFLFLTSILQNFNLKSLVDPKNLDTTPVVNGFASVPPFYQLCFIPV
Turning to `Cn1nnc(-c2oncc2CC(=O)N(C2CC3(CC3)C2)[C@@H](C(=O)NC23CC(C)(C2)C3)c2cc(F)ccc2F)n1`, the IC50 is 24 µM.

`Cn1nnc(-c2c(CC(=O)N(C3CC4(CC4)C3)[C@@H](C(=O)NC34CC(C)(C3)C4)c3ccccc3Cl)cnn2C)n1` had an IC50 of 20 µM.
